{
  "source": "patent US20230190887A1",
  "about": "“TARGETING G3BP AGGREGATION TO PREVENT NEURODEGENERATION” (priority 2019, published 2023)",
  "system": "NMJs in co-cultures with puromycin-resistant muscles",
  "assay": "NMJ function after local protein synthesis inhibition",
  "assay_type": "cell-based, mouse",
  "conditions": "Puromycin 100 μg/mL exclusively in NMJ compartment, 16 h",
  "experimental": "Analysis of NMJ function following protein synthesis inhibition with puromycin was performed by co-culturing WT MNs with primary muscles transfected with empty […]-mCherry vectors expressing PAC gene for puromycin resistance. After 12 days in co-culture, once cultures matured and NMJ were formed, Puromycin (100 μg/mL) was added exclusively to the distal (NMJ) compartment for 16 h. The proximal compartment was kept with higher volume of medium for allowing puromycin to act only locally within the NMJ compartment. After 16 h, cultures were labeled with OGB, and the calcium activity of axons and muscles was recorded. Analysis of the percent of muscles with calcium transients in co-culture, was performed on muscles with at least one overlapping axon. Only muscles that expressed mCherry (as a reporter for the expression of PAC) were used for this analysis. OGB lyophilized stock (Life technologies) was resuspended with 20% (w/v) Pluronic acid for a stock concentration of 3 mM Stock was diluted 1:1,000 in the appropriate medium. OGB was incubated with cultures for […] in 37° C., 5% CO2 incubator, and then washed 3 times with culture medium prior imaging. Calcium transients in axons and muscles were recorded in a spinning disk confocal microscope equipped with an EMCCD camera with ×40 oil objective using 488 nm laser. Image sequences of 1,000 frames were acquired at frame rate of 25 FPS. […]",
  "data": [
    {"smiles": "COc1ccc(C[C@H](N)C(=O)N[C@H]2[C@@H](O)[C@H](n3cnc4c(N(C)C)ncnc43)O[C@@H]2CO)cc1", "note": "[puromycin, Puromycin]", "values": [
      {"measurement": "active (innervated and contracting) muscles, calcium transients", "value": "pronounced decrease in active muscles"}
    ]}
  ]
}
